Here are results for 10 compounds from BindingDB's records for doi:10.1002/1439-7633(20021004)3:10 (Aventis Pharmaceuticals, 2002).

Values joined by “and” are separate entries in the source; they are usually repeats but may differ in a detail not shown here. Equal values may be shown once.

In the experiment the target is T1, Alpha-1B adrenergic receptor (Rattus norvegicus, UniProt P15823).
T1 sequence (P15823 whole entry): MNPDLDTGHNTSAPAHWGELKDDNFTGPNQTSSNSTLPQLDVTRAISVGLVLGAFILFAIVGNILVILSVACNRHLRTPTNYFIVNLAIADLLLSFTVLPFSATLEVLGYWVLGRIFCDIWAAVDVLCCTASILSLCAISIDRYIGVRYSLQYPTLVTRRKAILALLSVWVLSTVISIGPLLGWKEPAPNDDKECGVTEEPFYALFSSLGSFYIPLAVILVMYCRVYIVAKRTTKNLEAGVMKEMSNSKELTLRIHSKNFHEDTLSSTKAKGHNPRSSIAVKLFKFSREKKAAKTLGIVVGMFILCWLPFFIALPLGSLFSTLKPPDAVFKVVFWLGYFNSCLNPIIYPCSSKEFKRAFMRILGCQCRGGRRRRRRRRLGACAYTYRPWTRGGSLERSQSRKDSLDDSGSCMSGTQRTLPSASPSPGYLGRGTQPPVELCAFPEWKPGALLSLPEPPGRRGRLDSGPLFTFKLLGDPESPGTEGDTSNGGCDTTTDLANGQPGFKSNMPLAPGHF
Put plainly: Binding Assay. As to the method: All rat alpha-1 adrenoceptor binding was performed by Hugo M. vargas, Karen M. Brooks and Lynn Laws-Ricker.
Take `OCC(CN1Cc2ccccc2C1)N1CCC(c2noc3cc(F)ccc23)CC1` (stereo not given) [Isoindoline, 9]: the Ki was 43 nM and 54.5 nM and 225 nM.

`OCC(CN1Cc2ccc(F)cc2C1)N1CCC(c2noc3cc(F)ccc23)CC1` (stereo not given) [Isoindoline, 11] yielded a Ki of 92.5 nM. `OCC(CN1Cc2cccc(F)c2C1)N1CCC(c2noc3cc(F)ccc23)CC1` (stereo not given) [Isoindoline, 12] registered a Ki of 232 nM. As to `OCC(CN1Cc2ccc(Cl)cc2C1)N1CCC(c2noc3cc(F)ccc23)CC1` (stereo not given) [Isoindoline, 13], the inhibition constant (Ki) came out at 11.9 nM. The figure for `Cc1cccc2c1CN(CC(CO)N1CCC(c3noc4cc(F)ccc34)CC1)C2` (stereo not given) [Isoindoline, 16] is 12.4 nM; for `OCC(CN1Cc2ccc(C(F)(F)F)cc2C1)N1CCC(c2noc3cc(F)ccc23)CC1` (stereo not given) [Isoindoline, 17] it is 26 nM. Next, `COc1ccc2c(c1)CN(CC(CO)N1CCC(c3noc4cc(F)ccc34)CC1)C2` (stereo not given) [Isoindoline, 19]: 20 nM.

In turn, `COc1cccc2c1CN(CC(CO)N1CCC(c3noc4cc(F)ccc34)CC1)C2` (stereo not given) [Isoindoline, 20] registered a Ki of 17.5 nM.

The compound `O=C1c2ccccc2CN1CC(CO)N1CCC(c2noc3cc(F)ccc23)CC1` (stereo not given) [Isoindoline, 23] returned a Ki of 4.1 nM.

As to `OCC(CN1CCc2ccccc2C1)N1CCC(c2noc3cc(F)ccc23)CC1` (stereo not given) [Isoindoline, 26], the Ki was 19 nM. Against the preceding compound, the Ki is about 4.6-fold higher.

For orientation: Ki means a measure of affinity in units of concentration, obtained from inhibition or displacement. Lower therefore signals a stronger hold on the target.
